{"source": "patent US20230040901A1", "about": "“PHARMACEUTICAL COMPOSITION FOR INHIBITING POSTOPERATIVE ADHESIONS” (PlantTec Medical GmbH, priority 2018, published 2023)", "origin": "cited, not measured here", "key": {"[1]": {"test_system": "postoperative adhesions", "details": "2% to 4% citrate in water or saline solution, 60 experiments on rabbits"}, "[2]": {"test_system": "postoperative adhesions", "details": "clinical application in 400 abdominal surgeries"}}, "data": [{"smiles": "O=C(O)CC(O)(CC(=O)O)C(=O)O", "note": "[citrate]", "values": [{"measurement": "Adhesions", "setting": "[1]", "value": "fewer adhesions"}, {"measurement": "Development of adhesions", "setting": "[2]", "value": "clear improvement"}]}]}
